Reference: PMC7508583, “Discovery and Preclinical Development of Antigiardiasis Fumagillol Derivatives” (Antimicrobial Agents and Chemotherapy, 2020)
Values after ≈ are worked out from the molar mass of the structure shown. Read-outs that look alike come from different tables or passages of the source.

Tests used:
[1] = Plasma pharmacokinetics in mice; type: in vivo, C57BL/6 female mice
Experimental: The mean plasma concentration-time profiles for intravenous (i.v.) and per os (p.o.) administration in C57BL/6 female mice are shown in Fig. 6A. […] In contrast, at the earliest time point (15 min) following oral administration of a 6.6-mg/kg bolus, the plasma concentration reached a maximum of ∼92 ng/ml and then decreased gradually and remained detectable for 8 h.
Plasma intravenous (i.v.) and per os (p.o.) pharmacokinetic studies were performed in C57BL/6 female mice, using two groups of three mice each. […] The second group of mice received a 6.6-mg/kg dose orally; this dose matched the therapeutic dose that cured giardiasis with no remaining proliferating trophozoites. Blood samples were withdrawn at 5, 15, and 30 min and 1, 2, 4, 8, and 24 h after administration for the i.v. treated mouse group and at the same time intervals but beginning at 15 min for the p.o. treated mouse group. The samples were extracted with 60% water-diluted acetonitrile and were frozen at −20°C until analysis.
Blank and test compound-containing samples were thawed, vortexed to ensure complete mixing of the contents, and centrifuged at 4,000 rpm at 20°C for 10 min. The supernatants were transferred into autoinjector vials. The vials were loaded, and 30-μl sample volumes were injected onto an API 4000 LC-MS/MS system. The Agilent XDB C18 column was used for the liquid chromatographic step at a flow rate of 0.6 ml/min. The mass spectrometer was operated in the electrospray ionization-positive mode. Curcumin served as an internal standard. The chromatograms were evaluated using Analyst (version 1.6.3) software.

[2] = Single-dose acute toxicity (MTD) and histopathology; settings: in vivo
Experimental: The tissues of three surviving mice were analyzed along with the tissues of three animals treated with the vehicle alone. […] Based on these findings, the maximum tolerated dose (MTD) value was determined to be 1,500 mg/kg.
The maximum tolerated dose (MTD) determination was performed using 8- to 10-week-old C57BL/6 female mice in five groups of 6 animals each. The mice were acclimated to the study room for a week. Animals were randomized by body weight prior to being assigned to dosage groups at the outset of the study. […] Following an up-down dosing strategy, the clinical signs and body weights of the animals in a study group were evaluated daily for 5 days before escalating or reducing the dose administered to the next group, as appropriate. The clinical observations included posture, vocalization, ease of handling, lacrimation, chromodacryorrhea, salivation, coat appearance, rearing frequency, transfer arousal, piloerection, motor movements, tail pinch, and diarrhea.
The histopathology examination included 3 mice that survived treatment with the 2,000-mg/kg dose and 3 mice that received the vehicle alone. Brain, heart, lung, spleen, and liver tissues were examined. Formalin-fixed tissues were embedded in paraffin to produce 4-μm-thick sections. The paraffin wax was removed, and the tissues were stained with Gill’s hematoxylin for 5 to 10 min. The samples were rinsed in tap water, followed by ammonia water, and stained with eosin Y for 5 min. The hematoxylin-eosin-stained tissues were dehydrated and mounted for light microscopic examination.

[3] = test system: G. lamblia GS trophozoites; assay: Mouse giardiasis model efficacy; type: in vivo, Giardia lamblia; settings: for ED50: Giardia duodenalis, 96 h; for EC50, 4-day single-daily-dose treatment regimen: Fig. 5
Experimental: The C57BL/6J mice were infected with G. lamblia GS trophozoites, treated for 4 days, and euthanized as described in Materials and Methods.
Compound efficacy was evaluated in the mature mouse giardiasis model reported previously ([18], [66]). Fifteen 4-week-old C57BL/6J female mice (The Jackson Laboratory, Bar Harbor, ME) were infected with G. lamblia GS or H7 trophozoites. For each experiment, the trophozoites (500,000 trophozoites suspended in 200 μl of TYI-S-33 medium) were administered by oral gavage to 15 mice. […] The remaining 5 untreated mice served as controls. The compounds were administered by oral gavage in 200 μl of TYI-S-33 medium supplemented with 0.5% DMSO. All mice were euthanized on day 7. The University of Maryland College Park IACUC approved the animal studies.
Two inches of the upper small intestine were dissected and washed with 2 ml of medium supplemented with antibiotics to produce axenized cultures (1 mg/ml each piperacillin and moxalactam and 10 μg/ml each vancomycin and polymyxin B, which is a modified mixture compared with that used earlier). The harvested small intestines were opened longitudinally and minced in a petri dish containing 10 ml of ice-chilled medium. The plates were placed on ice for 30 min to allow the trophozoites to detach from the intestine, and the entire content of each petri dish was transferred into a 15-ml glass tube, the volume was adjusted to 14 ml by adding the antibiotic-containing medium, and the tube was vigorously vortexed to separate the trophozoites from the intestine debris. For the following 2 h, the tubes were kept at 37°C to allow trophozoite attachment to the wall of the glass tube, after which the medium containing the intestine debris was decanted and replaced by fresh medium. The tubes were kept at 37°C for another 15 min, followed by a second medium replacement. The tubes were kept at 37°C for 6 days for proliferation. Trophozoite growth was determined once daily by monitoring the ATP content using the ATPlite reagent.
The proliferation measurements were used to calculate growth curves and the trophozoite load of drug-treated mice compared with that of untreated mice. The trophozoite load was quantified by calculating the initial population from the growth curves and fitting the luminescence or the trophozoite counting data to the Malthusian model of exponential growth, Nt = N0e^rt, where Nt is the signal of the population at time t, r is the growth rate, and N0 is the signal of the initial population at the end of treatment. The percentage of the load relative to the N0 for untreated mouse samples was determined. […] The curve was fit with a variable slope using GraphPad Prism (version 8.2.1) software (GraphPad Software Inc., La Jolla, CA).

CHO-K1 (CHO) cells = settings: cited from earlier work
[4] = test system: G. lamblia GS trophozoites; design: method as in PMID 25267663; settings: proliferation assay; cited from earlier work
[5] = test system: G. lamblia WB trophozoites; design: method as in PMID 25267663; settings: proliferation assay; cited from earlier work
[6] = design: method as in earlier work; settings: degraded from 98% purity; Sanofi; cited from earlier work
[7] = 13.7 mg/kg, mouse giardiasis model

SMILES: CO[C@@H]1[C@H](OC(=O)Nc2ccc(C(=O)O)cc2)CC[C@]2(CO2)[C@H]1[C@@]1(C)O[C@@H]1CC=C(C)C [Compound 9, 4-(((((3R,4S,5S,6R)-5-methoxy-4-((2R,3R)-2-methyl-3-(3-methylbut-2-en-1-yl)oxiran-2-yl)-1-oxaspiro[2.5]octan-6-yl)oxy)carbonyl)amino)benzoic acid]
- time plasma concentration remained detectable ([1]; 6.6 mg/kg oral bolus): 8 h
- maximum plasma concentration ([1]; 6.6 mg/kg oral bolus, C57BL/6 female mice): ~92 ng/mL
- time point of maximum plasma concentration ([1]; 6.6 mg/kg oral bolus, earliest time point): 15 min
- half-life ([1]; mouse, iv, 2 mg/kg i.v., plasma, C57BL/6 female mice, read-out: calculated half-life): 7.2 min
- concentration at 5 min ([1]; mouse, plasma, intravenous, 2 mg/kg i.v. bolus, C57BL/6 female mice, read-out: plasma concentration at the 5-min time point): ~136 ng/mL
- concentration at 1 h ([1]; mouse, plasma, intravenous, 2 mg/kg i.v. bolus, C57BL/6 female mice, read-out: plasma concentration by 1 h after dosing (below limit of quantification)): < 5 ng/mL
- LD50 at 5 days ([2]; female, C57BL/6, mouse, po): > 2000 mg/kg
- MTD at 5 days ([2]; female, C57BL/6, mouse, po): 1500 mg/kg
- histopathology of liver, heart, brain, lung, spleen ([2]; mouse): normal tissue with no significant changes compared with the control tissues
- mortality ([2]; mouse): two mice died unexpectedly
- reduced body weight on day 3 ([2]; mouse): ~15%
- weight change and clinical signs ([2]; mouse): no weight change and no negative clinical signs
- fully curative dose (100% effective dose, ED100) ([3]; C57BL/6J mice infected with G. lamblia GS, oral, once daily for 4 days): 6.6 mg/kg
- ED50 ([3]; C57BL/6J mice infected with G. lamblia GS, oral, once daily for 4 days, read-out: ED50): 0.064 mg/kg
- EC50, 4-day single-daily-dose treatment regimen ([3]; mouse giardiasis model): 0.064 mg/kg/day

SMILES: CO[C@@H]1[C@H](OC(=O)/C=C/C=C/C=C/C=C/C(=O)O)CC[C@]2(CO2)[C@H]1[C@@]1(C)O[C@@H]1CC=C(C)C [Fumagillin, reference compound]
- IC50 (CHO-K1 (CHO) cells; read-out: IC50, cytotoxicity toward mammalian CHO cells): > 100 µM
- MLC, GS strain [4]: 0.26 µM (≈ 0.119 µg/mL)
- MLC, WB strain [5]: 0.7 µM (≈ 0.321 µg/mL)
- purity after storage at 40°C for 2 weeks at ambient humidity [6]: 85%
- cure of mice [3, 7]: none of the mice were cured
- trophozoite load remaining compared with untreated control mice [3, 7]: 7%
- ED50 ([3]; po): 0.247 mg/kg
- EC50, 4-day single-daily-dose treatment regimen ([3]; mouse giardiasis model): 0.247 mg/kg/day

SMILES: Cc1ncc([N+](=O)[O-])n1CCO [Metronidazole, reference compound]
- IC50 (CHO-K1 (CHO) cells; read-out: IC50 CHO, cytotoxicity): 17.3 µM
